The values that follow come from patent US20090118253A1, “COMPOSITIONS AND METHODS FOR TREATING DYSFUNCTIONAL UTERINE BLEEDING” (REPROS THERAPEUTICS INC., priority 2007, published 2009).

The structures appear in SMILES notation.

Data set [1] has as its system pre-menopausal adult women diagnosed with endometriosis. The data set can be described thus: Six month endometriosis study: pain diaries and pain intensity surveys. The class given is in vivo, human. As to the method: Pain reduction also occurred more rapidly than with the active control, Lucrin®. The response of pain to treatment in this study was analyzed in two ways. Patients in the study maintained daily pain diaries to record the severity and frequency of pain. In addition, at each office visit, patients filled out endometriosis symptom surveys that included a questionnaire that evaluated intensity of pain on a bad day on a scale of 0-10 with 10 being the greatest intensity. […] This decrease in duration of pain was statistically better (p=0.0012) than the 117.8 (74%; standard deviation 51.4 days) pain free days achieved with Lucrin n. […] Patients on CDB-4124 12.5 mg and 25 mg doses had 115.9 (66%; standard deviation 69.2 days) and 133.6 (75%; standard deviation 27.4 days) pain free days, respectively. […] The 25 mg and 12.5 mg doses of CDB-4124 were not statistically different from Lucrin®. […] The intensity of pain was asked by the question: “On a scale of 1-10, with 0 being no pain and 10 being extreme pain, how intense was your pain on a bad day?” The mean scores for intensity of pain at baseline were 6.3 for the CDB-4124 groups and 6.1 for the Lucrin® group. […] At month three all four active treatment groups had satistically significant reduction in pain compared with baseline, with the following scores: 3.7 (p=0.03) for 12.5 mg CDB-4124, 3.2 (p=0.03) for 25 mg CDB-4124, 1.6 (p=0.015) for 50 mg CDB-4124 and 1.5 (p=0.016) for Lucrin®. These dose related reductions continued until month six when the values for pain intensity were 2.0 (p=0.008), 2.8 (p=0.023), 0.6 (p=0.004) and 0.7 (p=0.016), respectively. Two months after stopping treatment pain returned and was of similar intensity in all four treatment groups.

The conditions of data set [2]: in vivo.
Method: Thirty-nine pre-menopausal adult women diagnosed with endometriosis were the subject of a six month study of Proellex™ (CDB-4124) in the treatment of endometriosis. The study included three dose levels of CDB-4124 as well as a positive control arm. The positive control was Lucrin®, a GnRH agonist, commonly used for the treatment of endometriosis (also known as Lupron®). CDB-4124 was administered in a double blinded fashion as a daily oral capsule at dosages of 12.5mg/day (n=2), 25mg/day (n=3) and 50mg/day (n=3). Another group (n=4) were injected with a slow release formulation of Lucrin® once per month as a positive control.
The nature of data set [3]: Urinary progesterone levels (luteal phase) in cynomolgus monkeys. It is filed as in vivo, Cynomolgus monkeys (Macaca fascicularis). The conditions noted are these: n=14 per group; CDB-4124 or RU-486 oral 1.0 mg/kg/day for 36 weeks; Lupron IM once per month. The method, then: Cynomolgus monkeys (Macaca fascicularis) (n=14) were treated orally for 36 weeks with CDB-4124 or RU-486 at 1.0 mg/kg/day or with placebo (control). Another group (n=14) received Lupron® IM once per month. Urinary progesterone levels were measured for each animal for one month during the middle of the study (weeks 14-17) and for the last month of the study (weeks 33-36).

Data set [4] concerns Cynomolgus monkey endometrial epithelium, uterus stroma and breast. The data set can be described thus: TUNEL apoptosis in cynomolgus monkey tissue. It is filed as in vivo, Cynomolgus monkeys (Macaca fascicularis). Particulars: week 36, percent apoptotic cells. The method, then: Apoptosis was assessed in tissue from the same animals on slides by the terminal deoxynucleotidyl transferase mediated dUTP-biotin nick end labeling (TUNEL) technique.

Data set [5] can be described thus: Urinary estrogen levels (follicular phase) in cynomolgus monkeys. The class given is in vivo, Cynomolgus monkeys (Macaca fascicularis). Details: Urinary estrogen, follicular phase, Mean: unit not given here. The conditions noted are these: for Urinary estrogen, follicular phase, Mean: CDB-4124 or RU-486 oral 1.0 mg/kg/day, Lupron IM once per month. As to the method:
Cynomolgus monkeys (Macaca fascicularis) (n=14) were treated orally for 36 weeks with CDB-4124 or RU-486 at 1.0 mg/kg/day or with placebo (control). Another group (n=14) received Lupron® IM once per month. Urinary progesterone levels were measured for each animal for one month during the middle of the study (weeks 14-17) and for the last month of the study (weeks 33-36). The results are presented below:
Urinary estrogen levels were measured for each animal of Example 6 for one month during the middle of the study (weeks 14-17) and for the last month of the study (weeks 33-36). The follicular phase results are based on 35 baseline ovulating cycles.

The test system of data set [6] is human endometrium. The data set can be described thus: Six month endometriosis study: ultrasound measurements of endometrial thickness. The class given is in vivo. An excerpt:
Women in the study were closely monitored for changes in the structure of the endometrium. […] Comparisons were made to both baseline and visit one ultrasound measurements of endometrial thickness. […]

Data set [7] has as its system Cynomolgus monkey endometrial epithelia, uterus stroma and breast. The data set can be described thus: BrdU incorporation, tissue proliferation in cynomolgus monkeys. The class given is in vivo, Cynomolgus monkeys (Macaca fascicularis). Particulars: week 36, % cells positive for incorporation of BrdU, three animals per group. As to the method: At week 36, three animals from each group of Example 6 were injected within 24 hours of sacrifice with the thymidine analog bromodeoxyuridine (BrdU), a marker of proliferating cells and their progeny, to assess tissue proliferation. Full thickness uterine sections were stained and examined microscopically for evidence of proliferation in terms of the % cells positive for incorporation of BrdU: […]
A general note: Dividing cells build labelled thymidine or BrdU into new DNA.

Data set [8] deals with T1, glucocorticoid receptor (Homo sapiens, UniProt P04150).
T1 sequence (P04150 1-777): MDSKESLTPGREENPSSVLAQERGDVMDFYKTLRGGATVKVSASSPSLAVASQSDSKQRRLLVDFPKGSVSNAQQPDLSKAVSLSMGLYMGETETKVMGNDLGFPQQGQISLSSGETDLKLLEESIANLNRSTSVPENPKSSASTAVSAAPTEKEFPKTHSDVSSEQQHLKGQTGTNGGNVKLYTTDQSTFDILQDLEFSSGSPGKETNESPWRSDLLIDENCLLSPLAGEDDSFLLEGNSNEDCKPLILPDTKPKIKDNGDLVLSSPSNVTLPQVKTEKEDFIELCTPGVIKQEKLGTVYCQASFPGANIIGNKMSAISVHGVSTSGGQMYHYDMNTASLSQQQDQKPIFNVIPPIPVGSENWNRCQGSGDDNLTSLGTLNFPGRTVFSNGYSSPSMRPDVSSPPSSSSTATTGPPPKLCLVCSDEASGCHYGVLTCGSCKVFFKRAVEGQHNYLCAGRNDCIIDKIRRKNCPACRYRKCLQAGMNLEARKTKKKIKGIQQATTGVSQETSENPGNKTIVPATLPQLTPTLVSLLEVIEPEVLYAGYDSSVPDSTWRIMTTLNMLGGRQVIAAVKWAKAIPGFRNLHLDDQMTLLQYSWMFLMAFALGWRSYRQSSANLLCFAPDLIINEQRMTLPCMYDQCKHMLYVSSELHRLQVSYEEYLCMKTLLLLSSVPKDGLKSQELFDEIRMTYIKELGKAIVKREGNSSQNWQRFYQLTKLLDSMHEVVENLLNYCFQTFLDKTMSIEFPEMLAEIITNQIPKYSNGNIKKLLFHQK
The conditions noted are these: compared with parent CDB-4124; cited from earlier work.

As to `CCNC(=O)[C@@H]1CCCN1C(=O)[C@H](CCCNC(=N)N)NC(=O)[C@H](CC(C)C)NC(=O)[C@@H](CC(C)C)NC(=O)[C@H](Cc1ccc(O)cc1)NC(=O)[C@H](CO)NC(=O)[C@H](Cc1c[nH]c2ccccc12)NC(=O)[C@H](Cc1c[nH]cn1)NC(=O)[C@@H]1CCC(=O)N1` [Lupron ®, leuprolide acetate], in data set [1] (baseline), the “mean score for intensity of pain on a bad day (scale 0-10)” value turned out to be 6.1. In data set [1] (month six, Lucrin once per month), the “score for intensity of pain on a bad day (scale 0-10)” value worked out at 0.7. The “score for intensity of pain on a bad day (scale 0-10)” value in data set [1] (month three, Lucrin once per month) is 1.5. Besides, the “pain free days over the 180 day treatment period” value in data set [1] (women, Lucrin once per month) is 117.8 days. The “pain free days, percent” value in data set [1] (women, Lucrin once per month, 180 day treatment period) is recorded as 74%. The “days of pain over the first three months” value in data set [1] (women, Lucrin slow release injection once per month) amounted to 19.4 days. Further, in data set [2], the “biomarkers of bone resorption compared with baseline” value is on record as “statistically significant increase” and the estrogen level was under 20 pg/mL. Moreover, in data set [3], the “Decrease in luteal phase progesterone (number of animals)” value is recorded as 13 and the “No decrease in luteal phase progesterone (number of animals)” value was 1. In data set [4], the “Breast Apo %” value is reported as 1.4 ± 0.7%, the “Uterus epithelium Apo %” value is recorded as 0.2 ± 0.1% and the “Uterus stroma Apo %” value stood at 0.2 ± 0.1%. Moreover, in data set [5] (Week 18), the “Follicular phase estrogen Lower?” value is “Yes” and the “Urinary estrogen, follicular phase, Mean” value came to 49.9. Besides, in data set [5] (Week 36), the “Follicular phase estrogen Lower?” value was “Yes” and the “Urinary estrogen, follicular phase, Mean” value is given as 41.7. Further, the “thickening of the endometrium after three months” value in data set [6] (Lucrin, five women) is recorded as “did not have a thickening of the endometrium”. Moreover, in data set [6] (Lupron once per month, 1st dose visit), the “Endometrium (mm), 1st dose” value was found to be 7.5 mm. Besides, the “Endometrium (mm), 3 months” value in data set [6] (Lupron once per month, 3 months) turned out to be 2.75 mm. Moreover, the “Endometrium (mm), screening” value in data set [6] (Lupron once per month, screening (baseline)) is listed as 7.9 mm. Moreover, in data set [7], the “Breast Brdu-%” value was determined as 0.3 ± 0.1%, the “Uterus epithelium Brdu-%” value is given as 3.1 ± 0.8% and the “Uterus stroma Brdu-%” value came out at 2.2 ± 1.0%.

For `CNc1ccc([C@H]2C[C@@]3(C)[C@@H](CC[C@]3(OC(C)=O)C(=O)COC)[C@@H]3CCC4=CC(=O)CCC4=C32)cc1` [CDB-4453, 21-methoxy-17α-acetoxy-11β-(4-N-methylaminophenyl)-19-norpregna-4,9-diene-3,20-dione], the anti-glucocorticoid activity entry in data set [8] is on record as “even lower anti-glucocorticoid activity than its parent”.
